Laboratory results from PMC8467962, “Design and Synthesis of Water-Soluble and Potent MMP-13 Inhibitors with Activity in Human Osteosarcoma Cells” (International Journal of Molecular Sciences, 2021).
In brackets after ≈: the same amount, converted by molar mass. Like-named read-outs stand apart in the source and are kept apart here.

Key:
[1] = Thermodynamic solubility (shake flask method); format: physicochemical; details: phosphate buffer, aqueous buffer, thermodynamic from solid; PBS pH 7.4, shake flask, room temperature; read-out: Experimental Water Solubility LogS (converted)
Procedure: The samples were sonicated for 10 min and shaken overnight at 800 rpm (FB15013 TopMix, Fischer Scientific, Waltham, MA, USA) at room temperature. A first phase separation of supernatant and undissolved solid was performed by centrifugation at 5000 rpm for 20 min (Biofuge primo R). The supernatant was then transferred into Eppendorf tubes for a second centrifugation. An adequate dilution was made using the particle-free supernatant and the concentration quantified by LC-HRMS using a 4-point calibration curve (Agilent 1260 Infinity II).
PART A. Calibration curves of compounds for solubility
9e, 10a-e), 4-points calibration curves were made for each compound. Calibrations curves were obtained using four different concentrations of the corresponding compound (0.1 mg/mL, 0.01 mg/mL, 0.001 mg/mL and 0.0001 mg/mL). All samples were prepared in DMSO and measured in a LC-HRMS (Agilent 1260 Infinity II).
Figure S1. Calibration curves of all active compounds (solubility studies) (1, 2, 9a, 9e, 10a-e) […]

MMP-13 = target: T1, MMP-13 (Homo sapiens, UniProt P45452); design: method as in PMID 30629065; details: cited from earlier work
T1 construct: the catalytic domains of the corresponding MMP were incubated in triplicate; purchased Enzo Life Science International, Inc

MMP-8 = target: T2, MMP-8 (Homo sapiens, UniProt P22894); design: method as in PMID 30629065; details: panel of MMPs; cited from earlier work
T2 construct: the catalytic domains of the corresponding MMP were incubated in triplicate; purchased Enzo Life Science International, Inc

MMP-7 = target: T3, MMP-7 (Homo sapiens, UniProt P09237); design: method as in PMID 30629065; details: panel of MMPs; cited from earlier work
T3 construct: the catalytic domains of the corresponding MMP were incubated in triplicate; purchased Enzo Life Science International, Inc
T3 sequence (P09237 95-267): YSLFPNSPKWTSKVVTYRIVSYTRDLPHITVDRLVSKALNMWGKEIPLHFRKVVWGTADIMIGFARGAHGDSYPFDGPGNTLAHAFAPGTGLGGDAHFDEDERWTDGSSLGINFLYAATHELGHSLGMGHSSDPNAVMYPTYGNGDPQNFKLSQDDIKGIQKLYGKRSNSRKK

MMP-10 = target: T4, MMP-10 (Homo sapiens, UniProt P09238); design: method as in PMID 30629065; details: panel of MMPs; cited from earlier work
T4 construct: the catalytic domains of the corresponding MMP were incubated in triplicate; purchased Enzo Life Science International, Inc

MMP-9 = target: T5, MMP-9 (Homo sapiens, UniProt P14780); design: method as in PMID 30629065; details: panel of MMPs; cited from earlier work
T5 construct: the catalytic domains of the corresponding MMP were incubated in triplicate; purchased Enzo Life Science International, Inc

MMP-14 = target: T6, MMP-14 (Homo sapiens, UniProt P50281); design: method as in PMID 30629065; details: panel of MMPs; cited from earlier work
T6 construct: the catalytic domains of the corresponding MMP were incubated in triplicate; purchased Enzo Life Science International, Inc

MMP-2 = target: T7, MMP-2 (Homo sapiens, UniProt P08253); design: method as in PMID 30629065; details: cited from earlier work
T7 construct: the catalytic domains of the corresponding MMP were incubated in triplicate; purchased Enzo Life Science International, Inc

MMP-3 = target: T8, MMP-3 (Homo sapiens, UniProt P08254); design: method as in PMID 30629065; details: panel of MMPs; cited from earlier work
T8 construct: the catalytic domains of the corresponding MMP were incubated in triplicate; purchased Enzo Life Science International, Inc

MMP-1 = target: T9, MMP-1 (Homo sapiens, UniProt P03956); design: method as in PMID 30629065; details: panel of MMPs; cited from earlier work
T9 construct: the catalytic domains of the corresponding MMP were incubated in triplicate; purchased Enzo Life Science International, Inc
T9 sequence (P03956 100-269 limits assumed): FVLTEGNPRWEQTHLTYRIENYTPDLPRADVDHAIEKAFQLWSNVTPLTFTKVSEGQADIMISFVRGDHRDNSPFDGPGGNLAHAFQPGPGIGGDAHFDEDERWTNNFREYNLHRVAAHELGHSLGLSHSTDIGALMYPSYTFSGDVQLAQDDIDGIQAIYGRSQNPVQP

MMP-12 = target: T10, MMP-12 (Homo sapiens, UniProt P39900); design: method as in PMID 30629065; details: panel of MMPs; cited from earlier work
T10 construct: the catalytic domains of the corresponding MMP were incubated in triplicate; purchased Enzo Life Science International, Inc
T10 sequence (P39900 106-263 limits assumed): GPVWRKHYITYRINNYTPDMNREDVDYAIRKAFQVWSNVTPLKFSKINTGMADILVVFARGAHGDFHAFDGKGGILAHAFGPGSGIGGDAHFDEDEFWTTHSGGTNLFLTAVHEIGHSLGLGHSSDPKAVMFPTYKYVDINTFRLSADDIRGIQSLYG

T7 sequence (P08253 110-446 limits assumed): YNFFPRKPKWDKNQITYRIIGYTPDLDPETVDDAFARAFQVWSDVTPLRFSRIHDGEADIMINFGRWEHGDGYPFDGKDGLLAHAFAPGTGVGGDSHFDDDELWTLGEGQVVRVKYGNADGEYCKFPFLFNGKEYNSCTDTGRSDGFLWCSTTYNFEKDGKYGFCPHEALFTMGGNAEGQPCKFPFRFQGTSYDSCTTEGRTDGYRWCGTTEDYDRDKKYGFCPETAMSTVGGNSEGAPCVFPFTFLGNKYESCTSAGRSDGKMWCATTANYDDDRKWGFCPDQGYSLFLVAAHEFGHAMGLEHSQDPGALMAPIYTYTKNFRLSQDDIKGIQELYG
T2 sequence (P22894 100-262 limits assumed): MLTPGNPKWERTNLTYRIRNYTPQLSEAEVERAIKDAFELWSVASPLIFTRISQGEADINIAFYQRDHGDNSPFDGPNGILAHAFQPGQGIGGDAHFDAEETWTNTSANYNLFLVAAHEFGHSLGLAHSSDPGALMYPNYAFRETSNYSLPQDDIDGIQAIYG
T5 sequence (P14780 107-444 limits assumed): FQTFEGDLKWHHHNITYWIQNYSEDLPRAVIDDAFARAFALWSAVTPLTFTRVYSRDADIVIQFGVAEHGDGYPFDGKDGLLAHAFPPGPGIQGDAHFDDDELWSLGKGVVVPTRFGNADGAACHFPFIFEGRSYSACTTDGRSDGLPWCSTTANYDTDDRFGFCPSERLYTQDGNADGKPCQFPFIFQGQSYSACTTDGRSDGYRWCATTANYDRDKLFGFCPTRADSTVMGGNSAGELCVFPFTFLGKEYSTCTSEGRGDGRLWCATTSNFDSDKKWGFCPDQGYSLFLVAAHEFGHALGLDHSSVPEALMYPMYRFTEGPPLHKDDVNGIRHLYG
T4 sequence (P09238 99-263 limits assumed): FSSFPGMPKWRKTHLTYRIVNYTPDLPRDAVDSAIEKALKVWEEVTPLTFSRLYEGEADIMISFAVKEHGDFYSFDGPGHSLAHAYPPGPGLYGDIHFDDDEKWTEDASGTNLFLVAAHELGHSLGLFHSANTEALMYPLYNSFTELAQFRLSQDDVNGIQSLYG
T8 sequence (P08254 100-272 limits assumed): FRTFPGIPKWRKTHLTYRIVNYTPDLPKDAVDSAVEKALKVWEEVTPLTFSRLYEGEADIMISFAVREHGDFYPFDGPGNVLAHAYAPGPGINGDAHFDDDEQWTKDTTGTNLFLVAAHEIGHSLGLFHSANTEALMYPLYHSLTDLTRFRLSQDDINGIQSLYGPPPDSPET

solubility [1]: 2.88 µM (≈ 2.45 µg/mL)
SMILES: O=C(NO)[C@@H](Cc1ccccc1)NS(=O)(=O)c1ccc(-n2cc(CCn3nc4c(Br)c(Br)c(Br)c(Br)c4n3)nn2)cc1 [Compound 1]
IC50 (MMP-13; panel of MMPs, read-out: IC50 MMP-13): 0.0037 µM | IC50 (MMP-13; previous work, read-out: MMP-13 IC50): 0.0037 ± 0.00185 µM | IC50 (MMP-8): > 0.5 µM | IC50 (MMP-7): > 1 µM | IC50 (MMP-10): 0.434 µM | IC50 (MMP-9): > 0.5 µM | IC50 (MMP-14): > 1 µM | IC50 (MMP-2; panel of MMPs, read-out: IC50 MMP-2): 0.07 µM | IC50 (MMP-2; previous work, read-out: MMP-2 IC50): 0.07 µM | IC50 (MMP-3): 0.5 µM | IC50 (MMP-1): > 1 µM | IC50 (MMP-12): 0.0178 µM
